Experimental data reported in PubChem BioAssay AID1259408 (Genetic Toxicology Data Bank (GENE-TOX), 2018).
Calls of active or inactive are those of the source. The rule behind the calls is not given here.

System: GENE-TOX genotoxicity assays, various organisms and cells
Test: GENE-TOX mutagenicity studies
Conditions: for call: Assay Type: In vivo carcinogenicity studies
[1] = Species/Cell Type: Chinese hamster ovary (CHO) cells, Assay Type: Forward gene mutation at the HPRT locus, Assay Code: CHOT, Evaluation Type: Evaluation B (Post-1980)
[2] = Species/Cell Type: Mammalian polychromatic erythrocytes, Assay Type: Micronucleus test, chromosome aberrations, Assay Code: MNT+, Evaluation Type: Evaluation B (Post-1980)
[3] = Species/Cell Type: Syrian hamster embryo (SA7/SHE) cells, Assay Type: Cell transformation, viral enhanced, Assay Code: CT7+, Evaluation Type: Evaluation A (Pre-1980)
[4] = Species/Cell Type: Salmonella typhimurium (one or more of the five standard strains: TA98, TA100, TA1535, TA1537, and TA1538), Assay Type: Histidine reverse gene mutation, Ames assay, Assay Code: SAL+*, Activation: With metabolic activation, Evaluation Type: Evaluation A (Pre-1980)
[5] = Species/Cell Type: Nonhuman, Assay Code: CCG+, Evaluation Type: Evaluation A (Pre-1980)
[6] = Species/Cell Type: Nonhuman, Assay Type: Sister-chromatid exchange (SCE) in vivo, Assay Code: SC3+, Evaluation Type: Evaluation B (Post-1980)
[7] = Species/Cell Type: Drosophila melanogaster, Assay Type: Sex-linked recessive lethal gene mutation, Assay Code: SRL+, Evaluation Type: Evaluation A (Pre-1980)
[8] = Species/Cell Type: Salmonella typhimurium (one or more of the five standard strains: TA98, TA100, TA1535, TA1537, and TA1538), Assay Type: Histidine reverse gene mutation, Ames assay, Assay Code: SAL+, Evaluation Type: Evaluation A (Pre-1980)
[9] = Species/Cell Type: Human lymphocytes, Assay Type: Sister-chromatid exchange (SCE) in vitro, Assay Code: SCL+D, Dose Response: With dose response, Evaluation Type: Evaluation B (Post-1980)
[10] = Species/Cell Type: Human, Assay Type: Sister-chromatid exchange (SCE) in vitro, Assay Code: SC1+D, Dose Response: With dose response, Evaluation Type: Evaluation B (Post-1980)
[11] = Species/Cell Type: Human, Assay Type: Sister-chromatid exchange (SCE) in vitro, Assay Code: SC1T, Evaluation Type: Evaluation B (Post-1980)

For `O=[As]O`, which mutagenic call (Species/Cell Type: Bacillus subtilis (H17 vs M45), Assay Type: Rec-assay, spot test, DNA effects (bacterial DNA repair), Assay Code: REW+, Evaluation Type: Evaluation A (Pre-1980)) is on record?
Its mutagenic call is “active; positive”.

What about the mutagenic call [1] of the same compound?
The mutagenic call was “no conclusion”.

And the mutagenic call (Species/Cell Type: Human lymphocytes, Assay Type: Sister-chromatid exchange (SCE) in vitro, Assay Code: SCL+D*, Activation: With metabolic activation, Dose Response: With dose response, Evaluation Type: Evaluation B (Post-1980))?
Its mutagenic call is “active; positive”.

And the mutagenic call (Species/Cell Type: Human, Assay Type: Sister-chromatid exchange (SCE) in vitro, Assay Code: SC1+D*, Activation: With metabolic activation, Dose Response: With dose response, Evaluation Type: Evaluation B (Post-1980))?
Its mutagenic call is “active; positive”.

What about the mutagenic call [2] of the same compound?
Its mutagenic call is “active; positive”.

What about the mutagenic call (Species/Cell Type: Nonhuman, Assay Type: Sister-chromatid exchange (SCE) in vitro, Assay Code: SC2+, Evaluation Type: Evaluation B (Post-1980)) of the same compound?
Its mutagenic call is “active; positive”.

What about the mutagenic call [3] of the same compound?
The mutagenic call was “active; positive”.

Which mutagenic call [4] does the source give for `CCN(CC)CC[NH+]([O-])c1ccc(C)c2sc3cc(Cl)ccc3c(=O)c12` (stereo not given) here?
Its mutagenic call is “active; positive”.

Which mutagenic call [2] does the source give for `Clc1ccccc1Cl` here?
Its mutagenic call is “active; positive”.

With `[S]=[Mo]=[S]` as the compound, how does the mutagenic call [3] read?
The mutagenic call was “active; positive”.

Which mutagenic call (Species/Cell Type: Human, Sex: Male, Assay Type: Sperm morphology, Assay Code: SPH+, Evaluation Type: Evaluation A (Pre-1980)) does the source give for `C#C[C@]1(O)CC[C@H]2[C@@H]3CCc4cc(OC)ccc4[C@H]3CC[C@@]21C` (tested in a mixture with another compound) here?
The mutagenic call was “active; positive”.

Which call [5] does the source give for `Nc1ccc(Cc2ccc(N)cc2)cc1` here?
Its call is “active; positive”.

What about the mutagenic call [6] of the same compound?
The mutagenic call was “active; positive”.

Which mutagenic call [7] does the source give for `O=C1C=C(N2CC2)C(=O)C2=C1CCCC2` here?
The mutagenic call was “active; positive”.

For `CN(C)c1ccc(N=Nc2cccc(CCl)c2)cc1`, which mutagenic call (Species/Cell Type: Drosophila melanogaster, Assay Type: Sex-linked recessive lethal gene mutation, Assay Code: SRLT, Evaluation Type: Evaluation A (Pre-1980)) is on record?
Its mutagenic call is “no conclusion”.

`C[C@@H]1Cc2c(Cl)cc(C(=O)NC(Cc3ccccc3)C(=O)O)c(O)c2C(=O)O1` (stereo not given in full) was tested. Which mutagenic call (Species/Cell Type: Nonhuman, Assay Type: Sister-chromatid exchange (SCE) in vivo, Assay Code: SC3-, Evaluation Type: Evaluation B (Post-1980)) did it give?
The mutagenic call was “inactive; negative”.

With `CCCCCCCCCCCCCC(=O)N(C)N=O` as the compound, how does the mutagenic call (Species/Cell Type: Saccharomyces cerevisiae, Assay Type: Reverse gene mutation, Assay Code: YER+, Evaluation Type: Evaluation A (Pre-1980)) read?
The mutagenic call was “active; positive”.

`Oc1ccc2ccc3cc4ccccc4c4ccc1c2c34` was tested. Which mutagenic call (Species/Cell Type: Chinese hamster lung (V79) cells, Assay Type: Forward gene mutation at the HPRT or ouabain locus, Assay Code: V79+/-*, Activation: With metabolic activation, Evaluation Type: Evaluation A (Pre-1980)) did it give?
The mutagenic call was “inactive; positive without activation, negative with activation”.

And the call (Species/Cell Type: Nonhuman, Assay Code: CCGT, Evaluation Type: Evaluation A (Pre-1980))?
The call was “no conclusion”.

What about the mutagenic call [8] of the same compound?
The mutagenic call was “active; positive”.

Which mutagenic call (Species/Cell Type: Neurospora crassa, Assay Type: Aneuploidy, chromosome aberrations, Assay Code: NEN-, Evaluation Type: Evaluation A (Pre-1980)) does the source give for `Nc1ccc(Nc2ccccc2)cc1` here?
Its mutagenic call is “inactive; negative”.

What about the call (Species/Cell Type: Nonhuman, Assay Code: CCG-L, Evaluation Type: Evaluation A (Pre-1980)) of the same compound?
The call was “inactive; negative”.

`OCc1c2ccccc2c2ccc3cccc4ccc1c2c43` was tested. Which mutagenic call (Species/Cell Type: Chinese hamster lung (V79) cells, Assay Type: Forward gene mutation at the HPRT or ouabain locus, Assay Code: V79+*, Activation: With metabolic activation, Evaluation Type: Evaluation A (Pre-1980)) did it give?
Its mutagenic call is “active; positive”.

What about the mutagenic call [7] of the same compound?
Its mutagenic call is “active; positive”.

What about the call [5] of the same compound?
Its call is “active; positive”.

What about the mutagenic call [4] of the same compound?
Its mutagenic call is “active; positive”.

How did the mutagenic call [1] turn out when `[Cl][Pt-2]([Cl])([Cl])[Cl]` was run?
The mutagenic call was “no conclusion”.

`c1ccc(C2CO2)cc1` (stereo not given) was tested. Which mutagenic call (Species/Cell Type: Chinese hamster lung (V79) cells, Assay Type: Forward gene mutation at the HPRT or ouabain locus, Assay Code: V79+, Evaluation Type: Evaluation A (Pre-1980)) did it give?
Its mutagenic call is “active; positive”.

And the mutagenic call [7]?
The mutagenic call was “active; positive”.

And the mutagenic call (Species/Cell Type: Escherichia coli WP2 UVRA, Assay Type: Tryptophan reverse gene mutation, Assay Code: WPU+D, Dose Response: With dose response, Evaluation Type: Evaluation A (Pre-1980))?
Its mutagenic call is “active; positive”.

And the mutagenic call (Species/Cell Type: Human diploid fibroblasts, Assay Type: Unscheduled DNA synthesis (UDS) in vitro, DNA effects, Assay Code: UDH+, Evaluation Type: Evaluation A (Pre-1980))?
Its mutagenic call is “active; positive”.

What about the mutagenic call (Species/Cell Type: Human lymphocytes, Assay Type: Micronucleus test in vitro, chromosome aberrations, Assay Code: MN7+, Evaluation Type: Evaluation A (Pre-1980)) of the same compound?
Its mutagenic call is “active; positive”.

And the mutagenic call [9]?
Its mutagenic call is “active; positive”.

And the mutagenic call [10]?
The mutagenic call was “active; positive”.

What about the mutagenic call (Species/Cell Type: Mammalian polychromatic erythrocytes, Assay Type: Micronucleus test, chromosome aberrations, Assay Code: MNTT, Evaluation Type: Evaluation A (Pre-1980)) of the same compound?
Its mutagenic call is “no conclusion”.

And the call (Species/Cell Type: Nonhuman, Assay Code: CCG+L, Evaluation Type: Evaluation A (Pre-1980))?
The call was “active; positive”.

What about the mutagenic call [6] of the same compound?
The mutagenic call was “active; positive”.

And the mutagenic call (Species/Cell Type: Plant, Assay Type: Micronucleus test, chromosome aberrations, Assay Code: MNP+, Evaluation Type: Evaluation A (Pre-1980))?
The mutagenic call was “active; positive”.

What about the mutagenic call (Species/Cell Type: Rodents, Sex: Male, Assay Type: Dominant lethal test, Assay Code: DLT-, Evaluation Type: Evaluation A (Pre-1980)) of the same compound?
Its mutagenic call is “inactive; negative”.

And the mutagenic call (Species/Cell Type: Saccharomyces cerevisiae, Assay Type: Forward and reverse gene mutation, mitotic recombination and gene conversion, host-mediated assay, Assay Code: HME+, Evaluation Type: Evaluation A (Pre-1980))?
Its mutagenic call is “active; positive”.

What about the mutagenic call (Species/Cell Type: Saccharomyces cerevisiae, Assay Type: Mitotic recombination or gene conversion, Assay Code: YEC+*, Activation: With metabolic activation, Evaluation Type: Evaluation A (Pre-1980)) of the same compound?
Its mutagenic call is “active; positive”.

What about the mutagenic call [8] of the same compound?
The mutagenic call was “active; positive”.

What about the mutagenic call (Species/Cell Type: Schizosaccharomyces pombe, Assay Type: Forward gene mutation, Assay Code: YEY+/-*, Activation: With metabolic activation, Evaluation Type: Evaluation A (Pre-1980)) of the same compound?
The mutagenic call was “inactive; positive without activation, negative with activation”.

With `OCCI` as the compound, how does the mutagenic call (Species/Cell Type: Escherichia coli polA (W3119 vs P3478), Assay Type: Rec-assay, DNA effects (bacterial DNA repair), Assay Code: RE1+, Evaluation Type: Evaluation A (Pre-1980)) read?
Its mutagenic call is “active; positive”.

And the mutagenic call (Species/Cell Type: Mouse, Sex: Male, Assay Type: Sperm morphology, Assay Code: SPI-, Evaluation Type: Evaluation A (Pre-1980))?
The mutagenic call was “inactive; negative”.

What about the mutagenic call [8] of the same compound?
The mutagenic call was “active; positive”.

For `Cc1c2c(cc3c1ccc1ccccc13)C=CC(O)C2O` (stereo not given), which mutagenic call [4] is on record?
The mutagenic call was “active; positive”.

How did the mutagenic call [11] turn out when `CCCOC(=O)c1cc(O)c(O)c(O)c1` was run?
The mutagenic call was “no conclusion”.

For `CCCCCCCCO`, which mutagenic call (Species/Cell Type: Nonhuman, Assay Type: Sister-chromatid exchange (SCE) in vitro, Assay Code: SC2T, Evaluation Type: Evaluation B (Post-1980)) is on record?
The mutagenic call was “no conclusion”.

How did the mutagenic call [3] turn out when `[Cu+].[Cu].[SH-]` was run?
Its mutagenic call is “active; positive”.

For `CCN(CCO)CCCNc1c2ccccc2nc2cc3ccccc3cc12`, which mutagenic call [1] is on record?
The mutagenic call was “no conclusion”.

Which mutagenic call [9] does the source give for `NP(=S)(N1CC1)N1CC1` here?
The mutagenic call was “active; positive”.

What about the mutagenic call [10] of the same compound?
Its mutagenic call is “active; positive”.

What about the mutagenic call (Species/Cell Type: Nonhuman, Assay Type: Sister-chromatid exchange (SCE) in vitro, Assay Code: SC2+D, Dose Response: With dose response, Evaluation Type: Evaluation B (Post-1980)) of the same compound?
The mutagenic call was “active; positive”.

Which mutagenic call [11] does the source give for `CC[C@H](C)[C@H](NC(=O)[C@@H](NC(=O)N[C@@H](Cc1ccccc1)C(=O)O)C1CCN=C(N)N1)C(=O)N[C@H](C=O)Cc1ccccc1` (stereo not given in full) (tested in a mixture with another compound) here?
The mutagenic call was “no conclusion”.
